From patent publication US8852928B2, “LexA-based chemical-inducible gene expression system for use in transgenic animals” (Temasek Life Sciences Laboratory Limited, priority 2007, dated 2014)
Entries after “also recorded” stand apart in the source; their conditions may differ.

Columns and labels:
LexPR transactivator [1] = molecular target: T1, LexPR transactivator (Homo sapiens, UniProt P06401); test: Trans-activation of mCherry effector in effector and double transgenic fish; format: in vivo, zebrafish; conditions: 1 μM
T1 construct: expressed in transfected cells; host or cells: germline-transgenic zebrafish (Danio rerio) carrying the Ds transposon driver cassette pDs(krt8:LPR-LOP:G4) or derivatives
T1 sequence (P06401 640-914): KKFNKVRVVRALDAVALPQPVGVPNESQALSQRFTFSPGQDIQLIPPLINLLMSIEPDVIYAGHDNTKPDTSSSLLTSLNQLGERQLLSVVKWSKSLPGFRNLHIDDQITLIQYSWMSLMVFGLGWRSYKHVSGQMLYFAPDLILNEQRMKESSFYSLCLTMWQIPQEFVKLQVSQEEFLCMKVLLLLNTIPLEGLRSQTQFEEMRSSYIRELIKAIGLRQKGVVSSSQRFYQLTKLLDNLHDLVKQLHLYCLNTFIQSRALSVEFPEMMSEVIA
Method: Two independent driver lines with different LexPR transactivator expression patterns (shown on FIGS. 4A, 4D) were crossed with two independent transgenic effector lines, which carried mCherry gene under control of the LexOP. […] Images were captured at 96 hours post fertilization.
This effector cassette harbors a gene for red fluorescent protein “mCherry” under the control of the LexOP sequence (Example 3).

LexPR transactivator [2] = molecular target: T1, LexPR transactivator; test: RT-PCR detection of EGFP transcript after mifepristone withdrawal; format: in vivo, zebrafish; conditions: 5 days after withdrawal; 12 hours induction with 1 μM
LexPR transactivator [3] = molecular target: T1, LexPR transactivator; test: Rate of transcription induction, whole mount in situ hybridization for EGFP transcript; format: in vivo, zebrafish; conditions: 1 μM
Method: RNA in situ hybridization: Whole mount in situ hybridization using antisense RNA probes for full length LexPR transactivator and EGFP labeled with digoxigenin (Roche, USA) was carried out as previously described (Oxtoby and Jowett, 1993). After in situ hybridization stained embryos were mounted in PBS-glycerol and viewed using Nikon SMZ1600 stereomicroscope. Images were taken with Nikon DXM1200F digital camera with the Nikon ACT-1 software and processed using Adobe Photoshop 7.0.1 software.
To accurately estimate the rate of induction, it is more appropriate to measure the transcript rather than the protein product, especially if the gene of interest contains sequences for RNAi, microRNA or other non-coding RNAs.

LexPR transactivator [4] = molecular target: T1, LexPR transactivator; test: Inducible expression of EGFP-KrasV12 in transgenic zebrafish; format: in vivo; conditions: 10 μM at 10 hpf onwards
Source text: Transgenic zebrafish line harboring insertion of the binary driver construct Ds(krt8:LPR-LOP:EGFP-Kras^V12) containing EGFP-Kras^V12 under control of the LexOP, F2 (FIG. 12a-12e, FIG. 12g). FIG. 12a: 24 hpf, no induction. […] FIG. 12f: Transgenic fish harboring the unmodified driver-reporter construct pDs(krt8:LPR-LOP:G4) containing EGFP gene under control of the LexOP.

LexPR transactivator [5] = molecular target: T1, LexPR transactivator; test: Mifepristone-induced EGFP reporter fluorescence in LexPR driver-reporter transgenic fish; format: in vivo, zebrafish
Source text: Generating transgenic fish using Ac/Ds transposon system: Transgenic fish carrying insertions of the driver and effector constructs containing Ds cis-required sequences (as described herein) were generated as previously described (Emelyanov et al., 2006). 5-10 pg of plasmid DNA was co-injected into zebrafish embryos (yolk center) with 25-50 pg of in vitro synthesized transposase mRNA at the 1-2-cell stage. […] Only the lines that segregated as a single locus (produced 1:1 ratio when outcrossed to nontransgenic fish) were selected.

LexPR transactivator [6] = molecular target: T1, LexPR transactivator; test: Time required to switch off EGFP reporter expression after mifepristone withdrawal; format: in vivo, zebrafish; set-up: key to Reporter expression, RU486 incubation / Reporter expression after RU486 withdrawal / Reporter expression, continuous induction (time of RU486 incubation): +: Fluorescence signal is similar to the control.; ±: Fluorescence signal is obviously weaker that in control.; −: No EGFP fluorescence (except autofluorescence)observed using the fluorescent stereomicroscope
Source text: To avoid confusion, the corresponding developmental times are indicated. A Nikon SMZ1600 fluorescent stereomicroscope was used for rough estimation of the EGFP fluorescence.

## CC#C[C@]1(O)CC[C@H]2[C@@H]3CCC4=CC(=O)CCC4=C3[C@@H](c3ccc(N(C)C)cc3)C[C@@]21C [mifepristone]
LexPR transactivator [1]
  Background mCherry fluorescence in effector lines (effector cassette only): No background mCherry fluorescence was detected; also recorded: not detected
  Reporter expression in double transgenic embryos (driver and effector): both reporters (EGFP/driver and mCherry/effector) were co-expressed in the same cells
LexPR transactivator [2]
  EGFP transcript by RT-PCR after withdrawal: can be detected
LexPR transactivator [3]
  Time of induction to maximum transcript level: approximately nine
LexPR transactivator [4]
  Effect of induced EGFP-KrasV12 expression on F2 embryos: embryo development was severely affected
LexPR transactivator [5]; 1 nM
  Reporter expression at lowest inducible concentration: significantly weaker reporter expression
LexPR transactivator [5]; 10 nM, after 24 hours of incubation
  EGFP expression induced: Strong EGFP expression
LexPR transactivator [5]; 1 μM and 100 nM final concentration in growth water
  Time until EGFP fluorescence was observed after adding mifepristone: 6 to 9 h
LexPR transactivator [5]; EGFP reporter, growth water
  Lowest inducible concentration: 1 nM
LexPR transactivator [5]; in the growth water
  Concentration required for effective transcription induction: 0.01 to 1 µM
LexPR transactivator [6]; 1 nM, 1 hour RU486 incubation - withdrawal, at 1 h incubation, 37hpf
  Reporter expression, RU486 incubation: −
LexPR transactivator [6]; 1 nM, 1 hour RU486 incubation, 12 h after withdrawal, 49hpf
  Reporter expression after RU486 withdrawal: −
LexPR transactivator [6]; 1 nM, 1 hour RU486 incubation, 24 h after withdrawal, 61hpf
  Reporter expression after RU486 withdrawal: −
LexPR transactivator [6]; 1 nM, 1 hour RU486 incubation, 48 h after withdrawal, 85hpf
  Reporter expression after RU486 withdrawal: −
LexPR transactivator [6]; 1 nM, 1 hour RU486 incubation, 72 h after withdrawal, 109hpf
  Reporter expression after RU486 withdrawal: −
LexPR transactivator [6]; 1 nM, 1 hour RU486 incubation, 96 h after withdrawal, 133hpf
  Reporter expression after RU486 withdrawal: −
LexPR transactivator [6]; 1 nM, 1 hour RU486 incubation, 120 h after withdrawal, 157hpf
  Reporter expression after RU486 withdrawal: −
LexPR transactivator [6]; 1 nM, 1 hour RU486 incubation, 144 h after withdrawal, 181hpf
  Reporter expression after RU486 withdrawal: −
LexPR transactivator [6]; 1 nM, 12 hours RU486 incubation - withdrawal, at 12 h incubation, 48hpf
  Reporter expression, RU486 incubation: −
LexPR transactivator [6]; 1 nM, 12 hours RU486 incubation, 12 h after withdrawal, 60hpf
  Reporter expression after RU486 withdrawal: ±
LexPR transactivator [6]; 1 nM, 12 hours RU486 incubation, 24 h after withdrawal, 72hpf
  Reporter expression after RU486 withdrawal: −
LexPR transactivator [6]; 1 nM, 12 hours RU486 incubation, 48 h after withdrawal, 96hpf
  Reporter expression after RU486 withdrawal: −
LexPR transactivator [6]; 1 nM, 12 hours RU486 incubation, 72 h after withdrawal, 120hpf
  Reporter expression after RU486 withdrawal: −
LexPR transactivator [6]; 1 nM, 12 hours RU486 incubation, 96 h after withdrawal, 144hpf
  Reporter expression after RU486 withdrawal: −
LexPR transactivator [6]; 1 nM, 12 hours RU486 incubation, 120 h after withdrawal, 168hpf
  Reporter expression after RU486 withdrawal: −
LexPR transactivator [6]; 1 nM, 12 hours RU486 incubation, 144 h after withdrawal, 192hpf
  Reporter expression after RU486 withdrawal: −
LexPR transactivator [6]; 1 nM, 12 hours induction
  Minimal time after RU486 withdrawal to turn off the reporter expression: 1 days
LexPR transactivator [6]; 1 nM, 24-156 h incubation, 60-192 hpf
  Reporter expression, continuous induction (time of RU486 incubation): ±
LexPR transactivator [6]; 1 nM, 1 h incubation
  Reporter expression, continuous induction (time of RU486 incubation): −
LexPR transactivator [6]; 1 nM, 12 h incubation
  Reporter expression, continuous induction (time of RU486 incubation): −
LexPR transactivator [6]; 1 nM, 13 h incubation, 49hpf
  Reporter expression, continuous induction (time of RU486 incubation): −
LexPR transactivator [6]; 1 nM, 24 h incubation, 60hpf
  Reporter expression, continuous induction (time of RU486 incubation): ±
LexPR transactivator [6]; 10 nM, 1 hour RU486 incubation - withdrawal, at 1 h incubation, 37hpf
  Reporter expression, RU486 incubation: −
LexPR transactivator [6]; 10 nM, 1 hour RU486 incubation, 12 h after withdrawal, 49hpf
  Reporter expression after RU486 withdrawal: ±
LexPR transactivator [6]; 10 nM, 1 hour RU486 incubation, 24 h after withdrawal, 61hpf
  Reporter expression after RU486 withdrawal: −
LexPR transactivator [6]; 10 nM, 1 hour RU486 incubation, 48 h after withdrawal, 85hpf
  Reporter expression after RU486 withdrawal: −
LexPR transactivator [6]; 10 nM, 1 hour RU486 incubation, 72 h after withdrawal, 109hpf
  Reporter expression after RU486 withdrawal: −
LexPR transactivator [6]; 10 nM, 1 hour RU486 incubation, 96 h after withdrawal, 133hpf
  Reporter expression after RU486 withdrawal: −
LexPR transactivator [6]; 10 nM, 1 hour RU486 incubation, 120 h after withdrawal, 157hpf
  Reporter expression after RU486 withdrawal: −
LexPR transactivator [6]; 10 nM, 1 hour RU486 incubation, 144 h after withdrawal, 181hpf
  Reporter expression after RU486 withdrawal: −
LexPR transactivator [6]; 10 nM, 1 hour induction
  Minimal time after RU486 withdrawal to turn off the reporter expression: 1 days
LexPR transactivator [6]; 10 nM, 12 hours RU486 incubation - withdrawal, at 12 h incubation, 48hpf
  Reporter expression, RU486 incubation: ±
LexPR transactivator [6]; 10 nM, 12 hours RU486 incubation, 12 h after withdrawal, 60hpf
  Reporter expression after RU486 withdrawal: +
LexPR transactivator [6]; 10 nM, 12 hours RU486 incubation, 24 h after withdrawal, 72hpf
  Reporter expression after RU486 withdrawal: ±
LexPR transactivator [6]; 10 nM, 12 hours RU486 incubation, 48 h after withdrawal, 96hpf
  Reporter expression after RU486 withdrawal: −
LexPR transactivator [6]; 10 nM, 12 hours RU486 incubation, 72 h after withdrawal, 120hpf
  Reporter expression after RU486 withdrawal: −
LexPR transactivator [6]; 10 nM, 12 hours RU486 incubation, 96 h after withdrawal, 144hpf
  Reporter expression after RU486 withdrawal: −
LexPR transactivator [6]; 10 nM, 12 hours RU486 incubation, 120 h after withdrawal, 168hpf
  Reporter expression after RU486 withdrawal: −
LexPR transactivator [6]; 10 nM, 12 hours RU486 incubation, 144 h after withdrawal, 192hpf
  Reporter expression after RU486 withdrawal: −
LexPR transactivator [6]; 10 nM, 12 hours induction
  Minimal time after RU486 withdrawal to turn off the reporter expression: 2 days
LexPR transactivator [6]; 10 nM, 24-156 h incubation, 60-192 hpf
  Reporter expression, continuous induction (time of RU486 incubation): +
LexPR transactivator [6]; 10 nM, 1 h incubation
  Reporter expression, continuous induction (time of RU486 incubation): −
